Results as given in US20240417395A1, “DUAL ANTAGONIST AND USE THEREOF” (NICOYA THERAPEUTICS (SHANGHAI) CO., LTD, priority 2021, published 2024).
pIC50: −log10 of the molar value. Where two headings read alike, the source gives them in different places.

Biological target: AT1 (Homo sapiens (Human), UniProt P30556)
Experiment: Calcium flux assay on AT1 cell line
Assay type: cell-based
Settings: AT1/HEK293, calcium flux, angiotensin II agonist
Method: Test materials: a) cell line: AT1/HEK293; b) vehicles: F12, Invitrogen (Cat #11765-047); FBS, Corning (Cat #35-076-CV); Geneticin, Invitrogen (Cat #10131); c) reagent: Fluo-4 Direct, (Invitrogen, Cat #F10471); d) instruments: 384 well Poly-D-Lysine protein coating plate, Greiner #781946; Vi-cell XR Cell Viability Analyzer, Beckman Coulter; Incubator, Thermo.
For the agonist (angiotensin II) master plate, the agonist solution was diluted from 1 mM to 200 μM with the test buffer solution. […] Afterwards, 900 nL of each compound solution was transferred to the master plate and 30 μL of the test buffer solution was added. • a) The cell plate was removed from the incubator, and 20 μL of 2X Fluo-4 Direct was added by a pipette to a 384-well cell plate. • b) The cell plate was incubated at 37° C. for 50 min in the environment of 5% CO2, and then incubated at room temperature for 10 min. • c) The cell plate was removed from the incubator and placed in FLIPR. The compound plates and the tip box were placed in FLIPR. • d) Regarding the EC80 plate: • 1) Operations were conducted on […]. • 2) 10 μL of compound solution was transferred from the EC80 master plate to the cell plate. • 3) Fluorescence signals were read. • 4) The read signals were counted, and the EC80 value of each cell line was calculated using FLIPR. • 5) For the concentration of the compound plate, a solution having a concentration 6 times that of the reference agonist EC80 was formulated. • e) Regarding the compound plate: • 1) Operations were conducted on […]. • 2) 10 μL of compound was transferred to the cell plate. • 3) Fluorescence signals were read. • 4) 10 μL of solution having a concentration 6 times that of the reference agonist EC80 was transferred. • 5) Fluorescence signals were read. • f) Data analysis by Prism

[1] = read-out: IC50 activity against AT1 (class)

Chain of AT1 (P30556 whole entry): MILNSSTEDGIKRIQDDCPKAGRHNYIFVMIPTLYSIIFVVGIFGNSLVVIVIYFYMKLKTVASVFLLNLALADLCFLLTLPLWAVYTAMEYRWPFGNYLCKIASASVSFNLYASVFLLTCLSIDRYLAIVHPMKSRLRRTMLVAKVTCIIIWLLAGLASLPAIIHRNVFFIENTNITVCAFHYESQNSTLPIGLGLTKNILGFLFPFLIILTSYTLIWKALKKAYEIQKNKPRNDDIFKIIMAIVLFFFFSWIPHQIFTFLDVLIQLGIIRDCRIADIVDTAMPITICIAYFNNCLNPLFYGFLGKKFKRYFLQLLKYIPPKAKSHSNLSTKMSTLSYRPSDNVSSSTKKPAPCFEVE

| Structure (SMILES) | pIC50 [1] | pIC50 (read-out: IC50 against AT1) |
| --- | --- | --- |
| CCCCC1=N[C@@]2(CC3C[C@H]3C2)C(=O)N1Cc1ccc(-c2ccccc2S(=O)(=O)Nc2noc(C)c2C)c(COCC)c1 (some centres unmarked) [Example 3] | 8.00 to 9.00 | 8.71 |
| CCCCC1=N[C@@]2(CC3C[C@H]3C2)C(=O)N1Cc1ccc(-c2ccccc2S(=O)(=O)Nc2noc(C)c2Cl)c(COCC)c1 (some centres unmarked) [Example 7] | 8.00 to 9.00 | 8.45 |
| CCCCC1=NC2(CCCC2)C(=O)N1Cc1ccc(-c2ccccc2S(=O)(=O)Nc2noc(C)c2C)c(COCC)c1 [Sparsentan, reference compound] | – | 8.01 |
